Converted amounts (≈) assume the structure as drawn. “And” between values parts separate entries of the source, which are not always exact repeats. Equal entries are not always repeated. “Also recorded” adds a separate entry of the source. Where two headings read alike, the source gives them in different places.

The test system of data set [1] is Herpes Simplex Virus Type 1, Strain 377. As to the kind of experiment: Antiviral activity vs. herpes simplex virus type 1 replicating in Vero cells (virus-induced cytopathogenic effects). It is filed as cell-based. Particulars: for antiviral activity vs. HSV-1 (in words): HSV-1, Table 1 summary; for Virus rating (VR): 0.5-0.9 marginal to moderate, >=1 definite antiviral activity; for EC50: Human alphaherpesvirus 1, Vero, read-out: MIC50 (minimum inhibitory concentration, 50%). The protocol: (§1) The MIC50 (minimum inhibitory concentration, 50%) is the concentration of a test compound required for 50% inhibition of virus-induced cytopathogenic effects.
(§2) ^a Antiviral evaluations were performed with HSV1 or HSV2 replicating
(Cytopathic effects are the visible damage that an infection or toxin causes in cultured cells.)

For data set [2], the system named is Herpes Simplex Virus Type 2, Strain MS. As to the kind of experiment: Antiviral activity vs. herpes simplex virus type 2 replicating in Vero cells (virus-induced cytopathogenic effects). It is filed as cell-based. To be noted: for antiviral activity vs. HSV-2 (in words): HSV-2, Table 1 summary; for Virus rating (VR): 0.5-0.9 marginal to moderate, >=1 definite antiviral activity; for EC50: Human alphaherpesvirus 2, Vero, read-out: MIC50 (minimum inhibitory concentration, 50%). On the procedure: as §1, §2

The subject of data set [3] is thymidine phosphorylase. Particulars: isolated from human blood platelets; cited from earlier work.
For data set [4] the following is noted: rats; cited from earlier work.
The mark [5] stands for this setting: HSV-1 strain 377, Vero cells, 50% inhibition of virus-induced cytopathogenic effects.
The mark [6] stands for this setting: HSV-2 strain MS, Vero cells, 50% inhibition of virus-induced cytopathogenic effects.
Where [7] appears, read: listed as carbocyclic analogue of 5-ethynyl-2'-deoxyuridine.

For the compound `CCc1cn([C@@H]2C[C@H](CO)[C@@H](O)C2)c(=O)[nH]c1=O` (relative stereo) [C-EDU, 5-Ethyl-1-[(1α,3β,4α)-3-Hydroxy-4-(hydroxymethyl)cyclopentyl]-2,4(1H,3H)-pyrimidinedione], the “antiviral activity vs. HSV-1 (in words)” value in data set [1] is reported as “comparable to those of 9-β-D-arabinofuranosyladenine (Ara-A); also recorded: as active vs. HSV-1 as is the corresponding true nucleoside, 5-ethyl-2'-deoxyuridine (EDU); also recorded: inhibits the replication”. The “Virus rating (VR)” value in data set [1] (HSV-1 strain 377, Vero cells) was 2.4 and 2.1; in data set [2] (HSV-2 strain MS, Vero cells), 1.1. Also, the “MIC50 (minimum inhibitory concentration, 50%)” value stood at 69 µg/mL (≈ 271 µM) in data set [1] (setting [5]) and 178 µg/mL (≈ 700 µM) in data set [2] (setting [6]). Moreover, the figures for the EC50 in data set [1] (setting [5]) and in data set [2] (setting [6]) were 45 µg/mL (≈ 177 µM) and 227 µg/mL (≈ 893 µM), respectively. The “antiviral activity vs. HSV-2 (in words)” value in data set [2] was “comparable to those of 9-β-D-arabinofuranosyladenine (Ara-A); also recorded: definite and significant activity against HSV-2; also recorded: inhibits the replication”.

In the case of `C#Cc1cn([C@@H]2C[C@H](CO)[C@@H](O)C2)c(=O)[nH]c1=O` (relative stereo) [Example 4, 1-[(1α,3β,4α)-3-Hydroxy-4-(hydroxymethyl)cyclopentyl]-5-ethynyl-2,4(1H,3H)-pyrimidinedione], the “antiviral activity vs. HSV-1 (in words)” value is given as “significant antiviral activity” in data set [1] and “significant, selective activity” in data set [1] (setting [7]). Moreover, the “Virus rating (VR)” value in data set [1] (HSV-1 strain 377, Vero cells) worked out at 0.9; in data set [2] (HSV-2 strain MS, Vero cells), 1.1. Besides, the figures for the EC50 in data set [1] (setting [5]) and in data set [2] (setting [6]) were 253 µg/mL (≈ 1010 µM) and 207 µg/mL (≈ 827 µM), respectively. The “antiviral activity vs. HSV-2 (in words)” value in data set [2] is on record as “significant antiviral activity”; in data set [2] (setting [7]) it was “significant, selective activity”.

Turning to `C[Si](C)(C)CCc1cn([C@@H]2C[C@H](CO)[C@@H](O)C2)c(=O)[nH]c1=O` (relative stereo) [Example 7, 1-[(1α,3β,4α)-3-Hydroxy-4-(hydroxymethyl)cyclopentyl]-5-[2-(trimethylsilyl)ethyl]-2,4(1H,3H)-pyrimidinedione], in data set [1], the “antiviral activity vs. HSV-1 (in words)” value is given as “antiviral activity” and the EC50 was determined as 320 µg/mL (≈ 980 µM). For the same compound, the “antiviral activity vs. HSV-1 (in words)” value in data set [1] (listed as carbocyclic analogue of 5-trimethylsilylethyl-2'-deoxyuridine) is reported as “activity against HSV-1”. For the same compound, in data set [1] (HSV-1 strain 377, Vero cells), the “Virus rating (VR)” value turned out to be 0.5.

With `Nc1ncnc2c1ncn2[C@@H]1O[C@H](CO)[C@@H](O)[C@@H]1O` [Ara-A, 9-β-D-arabinofuranosyladenine, reference compound], the “Virus rating (VR)” value in data set [1] (HSV-1 strain 377, Vero cells) is given as 2.0-2.1; in data set [2] (HSV-2 strain MS, Vero cells), 1.3-1.7. In addition, the EC50 in data set [1] lay in the range of 15 to 19 µg/mL (≈ 56.1 to 71.1 µM); in data set [2], 22 to 45 µg/mL (≈ 82.3 to 168 µM).

Turning to `O=c1[nH]c(=O)n([C@H]2C[C@H](O)[C@@H](CO)O2)cc1/C=C/Br` [BVDU, 5-[(E)-2-(bromovinyl)]-2'-deoxyuridine], the “substrate for thymidine phosphorylase” value in data set [3] is recorded as “substrates for thymidine phosphorylase”.

As for `CCc1cn([C@H]2C[C@H](O)[C@@H](CO)O2)c(=O)[nH]c1=O` [EDU, 5-ethyl-2'-deoxyuridine, reference compound], the “Virus rating (VR)” value in data set [1] (HSV-1 strain 377, Vero cells) stood at 2.3; in data set [2] (HSV-2 strain MS, Vero cells), 2.2. Further, the EC50 was 19 µg/mL (≈ 74.1 µM) in data set [1] and 321 µg/mL (≈ 1250 µM) in data set [2]. In data set [3], the “substrate for thymidine phosphorylase” value is “substrates for thymidine phosphorylase”. The “cleavage products identified as metabolites” value in data set [4] is 5-ethyluracil and 5-(2-hydroxyethyl)uracil.

The values above are taken from US4719214A, “Carbocyclic analogues of thymine nucleosides” (priority 1985, dated 1988).
